According to patent publication US20250136606A1, “MODULATORS OF TRPML, THEIR COMPOSITIONS AND METHODS OF USE” (Caraway Therapeutics, Inc., priority 2021, published 2025):
Where two headings read alike, the source gives them in different places.

What was measured:
Assay type in all cases: cell-based
TRPML2 = target: T1, TRPML2 (Homo sapiens, UniProt Q8IZK6); assay: Fluorescent TRPML2 assay (performed as for TRPML1, substituting the TRPML2 subtype)
T1 construct: expressed in transfected cells
T1 sequence (Q8IZK6 1-566): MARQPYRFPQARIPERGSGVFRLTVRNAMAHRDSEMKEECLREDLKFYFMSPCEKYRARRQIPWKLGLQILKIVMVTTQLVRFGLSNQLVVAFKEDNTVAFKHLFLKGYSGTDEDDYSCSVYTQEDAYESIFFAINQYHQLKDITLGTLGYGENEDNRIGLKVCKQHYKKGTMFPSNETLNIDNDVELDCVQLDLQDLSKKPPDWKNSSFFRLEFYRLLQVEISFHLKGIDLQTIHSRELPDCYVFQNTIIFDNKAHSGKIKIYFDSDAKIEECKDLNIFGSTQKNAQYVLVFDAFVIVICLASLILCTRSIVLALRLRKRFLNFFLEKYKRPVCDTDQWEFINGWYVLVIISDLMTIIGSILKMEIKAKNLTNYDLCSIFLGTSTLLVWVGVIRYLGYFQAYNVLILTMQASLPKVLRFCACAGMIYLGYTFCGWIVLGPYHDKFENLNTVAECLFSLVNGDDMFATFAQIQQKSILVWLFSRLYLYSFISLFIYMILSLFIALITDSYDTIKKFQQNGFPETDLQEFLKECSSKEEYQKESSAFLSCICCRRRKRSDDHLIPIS
Summary of the method: (§1)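 HEK-293 Trex cells with doxycycline-induced (0.5 ug/mL) surface-directed human TRPML subtype, loaded with 1 μM Fluo4-AM, resuspended in Ringer's with 10 mM calcium. Compounds at 20 μM to 6 nM final in half-log steps, triplicate; fluorescence ex 480/em 540; EC50 by non-linear regression versus plate controls.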

TRPML3 = target: T2, TRPML3 (Homo sapiens, UniProt Q8TDD5); assay: Fluorescent TRPML3 assay (performed as for TRPML1, substituting the TRPML3 subtype)
T2 construct: expressed in transfected cells
T2 sequence (Q8TDD5 1-553): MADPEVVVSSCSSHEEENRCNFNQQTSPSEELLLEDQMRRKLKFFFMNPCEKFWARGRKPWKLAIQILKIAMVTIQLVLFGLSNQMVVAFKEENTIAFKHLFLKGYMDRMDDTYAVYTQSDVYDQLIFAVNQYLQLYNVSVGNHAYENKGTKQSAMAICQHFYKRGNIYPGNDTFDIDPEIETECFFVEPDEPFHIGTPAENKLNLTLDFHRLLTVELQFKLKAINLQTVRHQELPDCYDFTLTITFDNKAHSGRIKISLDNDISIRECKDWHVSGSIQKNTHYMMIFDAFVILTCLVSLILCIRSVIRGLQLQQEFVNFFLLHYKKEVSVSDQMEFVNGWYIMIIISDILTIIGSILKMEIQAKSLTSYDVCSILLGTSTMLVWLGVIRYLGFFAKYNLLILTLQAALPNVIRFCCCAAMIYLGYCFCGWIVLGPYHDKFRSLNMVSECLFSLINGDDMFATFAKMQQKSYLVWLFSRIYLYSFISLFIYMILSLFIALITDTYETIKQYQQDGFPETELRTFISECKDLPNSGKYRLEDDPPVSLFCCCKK
Summary of the method: as §1

TRPML1 = TRPML1 (Homo sapiens, UniProt Q9GZU1); assay: Fluorescent TRPML1 assay (Fluo4-AM calcium fluorescence in doxycycline-induced HEK-293 Trex cells)
Summary of the method: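 EC50 values come from non-linear regression of percent activity, normalized to on-plate positive and negative controls, with fluorescence read at 480 nm excitation and 540 nm emission. Fluo4-AM-loaded (1 µM) doxycycline-induced HEK-293 Trex cells expressing mutated human TRPML1 were exposed in 10 mM calcium Ringer's to 6 nM–20 µM compound, in triplicate.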

TRPML1, sequence (Q9GZU1 whole entry L15A/L16A/L577A/L578A, form open): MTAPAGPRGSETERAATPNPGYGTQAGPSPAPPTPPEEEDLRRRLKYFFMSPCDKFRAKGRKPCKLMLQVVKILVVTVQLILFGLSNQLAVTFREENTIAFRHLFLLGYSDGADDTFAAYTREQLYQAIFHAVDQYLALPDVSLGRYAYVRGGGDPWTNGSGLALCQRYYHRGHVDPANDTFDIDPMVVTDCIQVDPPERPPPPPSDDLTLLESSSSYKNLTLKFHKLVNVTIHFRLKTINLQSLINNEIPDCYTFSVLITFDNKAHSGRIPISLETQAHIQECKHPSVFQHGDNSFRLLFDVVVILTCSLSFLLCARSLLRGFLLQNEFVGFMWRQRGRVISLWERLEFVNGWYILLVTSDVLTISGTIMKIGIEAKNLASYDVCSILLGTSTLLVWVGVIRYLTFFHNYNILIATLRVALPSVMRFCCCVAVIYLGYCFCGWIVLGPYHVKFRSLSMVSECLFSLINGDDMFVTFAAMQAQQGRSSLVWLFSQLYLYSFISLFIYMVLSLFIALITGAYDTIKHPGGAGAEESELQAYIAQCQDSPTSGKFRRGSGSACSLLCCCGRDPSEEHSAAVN

| Structure (SMILES) | EC50 (TRPML2; fluorescent calcium assay) | EC50 (TRPML3; fluorescent calcium assay) | EC50 (TRPML1; fluorescent calcium assay) | EC50 (TRPML2) | EC50 (TRPML3) | EC50 (TRPML1) |
| --- | --- | --- | --- | --- | --- | --- |
| C[C@@H]1CN(c2ncnc3c2c(-c2ccccc2F)cn3-c2cnn(C)c2)[C@@H](C)CN1C(=O)OC(C)(C)CF [Compound 185, 1-fluoro-2-methylpropan-2-yl (2R,5S)-4-(5-(2-fluorophenyl)-7-(1-methyl-1H-pyrazol-4-yl)-7H-pyrrolo[2,3-d]pyrimidin-4-yl)-2,5-dimethylpiperazine-1-carboxylate] | 500 to 2000 nM | < 100 nM | < 100 nM |  |  |  |
| [2H]C([2H])([2H])[C@@H]1CN(c2ncnc3c(-c4cc(C#N)ccn4)cn(-c4ccccc4F)c23)[C@@H](C)CN1C(=O)OC(C)(C)C [Compound 709, tert-butyl (2R,5S)-4-(7-(4-cyanopyridin-2-yl)-5-(2-fluorophenyl)-5H-pyrrolo[3,2-d]pyrimidin-4-yl)-5-methyl-2-(methyl-d3)piperazine-1-carboxylate] |  |  |  | < 100 nM | < 100 nM | < 100 nM |
| C[C@@H]1CN(c2ncnc3c2c(C2CC2)nn3-c2cc(F)cc(F)c2)CCN1C(=O)OC(C)(C)C [Compound 239, tert-butyl (R)-4-(3-cyclopropyl-1-(3,5-difluorophenyl)-1H-pyrazolo[3,4-d]pyrimidin-4-yl)-2-methylpiperazine-1-carboxylate] | 500 to 2000 nM | < 100 nM | < 100 nM |  |  |  |
| C[C@@H]1CN(c2ncnc3c2c(C(F)(F)F)cn3-c2nccc(C#N)n2)[C@@H](C)CN1C(=O)OC(C)(C)C [Compound 510, tert-butyl (2R,5S)-4-(7-(4-cyanopyrimidin-2-yl)-5-(trifluoromethyl)-7H-pyrrolo[2,3-d]pyrimidin-4-yl)-2,5-dimethylpiperazine-1-carboxylate] |  |  |  | > 2000 nM | < 100 nM | 100 to 500 nM |
| C[C@H]1CN(C(=O)OC(C)(C)C)CCN1c1ncnc2c1c(C1CC1)nn2-c1cc(C#N)ccn1 [Compound 343] | > 2000 nM | 100 to 500 nM | 500 to 2000 nM |  |  |  |
| C[C@@H]1CN(c2ncnc3c2c(-n2ccnc2)cn3-c2cccc(Cl)c2)CCN1C(=O)OC(C)(C)C [Compound 342, tert-butyl (R)-4-(7-(3-chlorophenyl)-5-(1H-imidazol-1-yl)-7H-pyrrolo[2,3-d]pyrimidin-4-yl)-2-methylpiperazine-1-carboxylate] | 500 to 2000 nM | 100 to 500 nM | < 100 nM |  |  |  |
| COc1cc(-n2cc(C3CC3)c3c(N4CCN(C(=O)OC(C)(C)C)C[C@@H]4C)ncnc32)cc(F)c1F [Compound 301, tert-butyl (S)-4-(5-cyclopropyl-7-(3,4-difluoro-5-methoxyphenyl)-7H-pyrrolo[2,3-d]pyrimidin-4-yl)-3-methylpiperazine-1-carboxylate] | 500 to 2000 nM | 100 to 500 nM | 100 to 500 nM |  |  |  |
| CC(C)(C)OC(=O)N1CCN(c2ncnc3c2c(-c2cccnc2)cn3-c2cccc(Cl)c2)CC1 [Compound 102, tert-butyl 4-(7-(3-chlorophenyl)-5-(pyridin-3-yl)-7H-pyrrolo [2,3-d]pyrimidin-4-yl)piperazine-1-carboxylate] | 100 to 500 nM | < 100 nM | < 100 nM |  |  |  |
| C[C@@H]1CN(c2ncnc3c2c(C(F)(F)F)cn3-c2cccc(F)c2)[C@@H](C)CN1C(=O)OC(C)(C)C [Compound 496, tert-butyl (2R,5S)-4-(7-(3-fluorophenyl)-5-(trifluoromethyl)-7H-pyrrolo[2,3-d]pyrimidin-4-yl)-2,5-dimethylpiperazine-1-carboxylate] |  |  |  | 100 to 500 nM | < 100 nM | < 100 nM |
| C[C@@H]1CN(c2ncnc3c2c(C2CC2)cn3-c2cccnc2)[C@@H](C)CN1C(=O)OC(C)(C)C [Compound 168, tert-butyl (2R,5S)-4-(5-cyclopropyl-7-(pyridin-3-yl)-7H-pyrrolo[2,3-d]pyrimidin-4-yl)-2,5-dimethylpiperazine-1-carboxylate] | > 2000 nM | 500 to 2000 nM | 500 to 2000 nM |  |  |  |
| C[C@H]1CN(C(=O)OC(C)(C)C)CCN1c1ncnc2c1c(C1CC1)cn2-c1cncc(C#N)c1 [Compound 259] | 500 to 2000 nM | 100 to 500 nM | 100 to 500 nM |  |  |  |

Results, then the compound that gave them:

| EC50 (TRPML2; fluorescent calcium assay) | EC50 (TRPML3; fluorescent calcium assay) | EC50 (TRPML1; fluorescent calcium assay) | EC50 (TRPML2) | EC50 (TRPML3) | EC50 (TRPML1) | Structure (SMILES) |
| --- | --- | --- | --- | --- | --- | --- |
| 100 to 500 nM | < 100 nM | < 100 nM |  |  |  | C[C@H]1CN(C(=O)OC(C)(C)C)CCN1c1ncnc2c1c(C(C)(C)O)cn2-c1cc(C#N)ccn1 [Compound 484, tert-butyl (S)-4-(7-(4-cyanopyridin-2-yl)-5-(2-hydroxypropan-2-yl)-7H-pyrrolo[2,3-d]pyrimidin-4-yl)-3-methylpiperazine-1-carboxylate] |
| < 100 nM | < 100 nM | < 100 nM |  |  |  | C[C@@H]1CN(c2ncnc3c2c(N2CCC2)cn3-c2cc(C#N)ccn2)[C@@H](C)CN1C(=O)OC(C)(C)C [Compound 489, tert-butyl (2R,5S)-4-(5-(azetidin-1-yl)-7-(4-cyanopyridin-2-yl)-7H-pyrrolo[2,3-d]pyrimidin-4-yl)-2,5-dimethylpiperazine-1-carboxylate] |
| < 100 nM | < 100 nM | < 100 nM |  |  |  | C[C@H]1CN(C(=O)OC(C)(C)C)CCN1c1ncnc2c1c(C1(C)CC1)cn2-c1cc(C#N)ccn1 [Compound 411, tert-butyl (S)-4-(7-(4-cyanopyridin-2-yl)-5-(1-methylcyclopropyl)-7H-pyrrolo[2,3-d]pyrimidin-4-yl)-3-methylpiperazine-1-carboxylate] |
| 100 to 500 nM | < 100 nM | < 100 nM |  |  |  | C[C@@H]1CN(c2ncnc3c2c(-c2ccccn2)cn3-c2cccc(Cl)c2)[C@@H](C)CN1C(=O)OC(C)(C)C [Compound 117, tert-butyl (2R,5S)-4-(7-(3-chlorophenyl)-5-(pyridin-2-yl)-7H-pyrrolo[2,3-d]pyrimidin-4-yl)-2,5-dimethylpiperazine-1-carboxylate] |
| 100 to 500 nM | < 100 nM | < 100 nM |  |  |  | C[C@@H]1CN(c2ncnc3c2c(C2CC2)cn3-c2cc(C#N)ccn2)CCN1C(=O)OC(C)(C)C [Compound 384, tert-butyl (R)-4-(7-(4-cyanopyridin-2-yl)-5-cyclopropyl-7H-pyrrolo[2,3-d]pyrimidin-4-yl)-2-methylpiperazine-1-carboxylate] |
| < 100 nM | < 100 nM | < 100 nM |  |  |  | CC(C)N(C)c1cn(-c2cc(C#N)ccn2)c2ncnc(N3CCN(C(=O)OC(C)(C)C)C[C@@H]3C)c12 [Compound 443, tert-butyl (S)-4-(7-(4-cyanopyridin-2-yl)-5-(isopropyl(methyl)amino)-7H-pyrrolo[2,3-d]pyrimidin-4-yl)-3-methylpiperazine-1-carboxylate] |
| 100 to 500 nM | < 100 nM | < 100 nM |  |  |  | CCN(CC)c1cn(-c2cccc(Cl)c2)c2ncnc(N3CCN(C(=O)OC(C)(C)C)C[C@@H]3C)c12 [Compound 366, tert-butyl (S)-4-(7-(3-chlorophenyl)-5-(diethylamino)-7H-pyrrolo[2,3-d]pyrimidin-4-yl)-3-methylpiperazine-1-carboxylate] |
| < 100 nM | < 100 nM | < 100 nM |  |  |  | C[C@H]1CN(C(=O)OC(C)(C)C)CCN1c1ncnc2c1c(-c1ccccc1F)cn2-c1ncc(C#N)s1 [Compound 428, tert-butyl (S)-4-(7-(5-cyanothiazol-2-yl)-5-(2-fluorophenyl)-7H-pyrrolo[2,3-d]pyrimidin-4-yl)-3-methylpiperazine-1-carboxylate] |
